Experimental data: patent US11464749B2, “Bismuth-thiol compositions and methods of use” (Microbion Corporation, priority 2018, dated 2022)
Converted amounts (≈) assume the structure as drawn.

Experiments:
Clostridium difficile = conditions: C. difficile MMX 4381 (ATCC 700057); cited from earlier work
[1] = system: Staphylococcus aureus (MRSA); assay: Broth microdilution MIC (Example 11)
Bacteroides fragilis = conditions: B. fragilis MMX 123 (ATCC 25285); cited from earlier work
S. pyogenes = assay: Broth microdilution MIC (Example 11); conditions: Streptococcus pyogenes
[2] = system: vancomycin-intermediate Staphylococcus aureus (VISA); assay: Broth microdilution MIC (Example 12); conditions: Staphylococcus aureus, NRS13 / VISA, read-out: MIC values
E. faecalis = assay: Broth microdilution MIC (Example 11); conditions: Enterococcus faecalis, VRE, VRE Lev^R Cip^R Ery^R
S. agalactiae = assay: Broth microdilution MIC (Example 11); conditions: Streptococcus agalactiae
S. pneumoniae [3] = assay: Broth microdilution MIC (Example 11); conditions: Streptococcus pneumoniae
S. pneumoniae [4] = conditions: S. pneumoniae MMX 6837 (ATCC 49619); cited from earlier work
[5] = S. pyogenes MMX 3820, ERY^R CLI^R
[6] = S. pyogenes MMX 3929, ERY^R CC^R
[7] = S. pyogenes MMX 5091, ERY^R CC^R
[8] = S. agalactiae MMX 3741, ERY^R CC^R
[9] = S. agalactiae MMX 3743, ERY^R CC^R
[10] = S. agalactiae MMX 4077, ERY^R CC^R
[11] = S. agalactiae MMX 4079, ERY^R CC^R Pen^R MEM^R
[12] = S. agalactiae MMX 4086, ERY^R CC^R
[13] = ATCC49619, S. pneumoniae MMX 6837 (ATCC 49619), QC
[14] = S. pneumoniae MMX 880, Lev^R SXT^R CC^R Ery^R Pen^R
[15] = S. pneumoniae MMX 937, Mem^R SXT^R CC^R Ery^R Pen^R
[16] = S. pneumoniae MMX 3959, CC^R Ery^R
[17] = S. pneumoniae MMX 5440, Mem^R SXT^R CC^R Ery^R Pen^R
[18] = S. pneumoniae MMX 5445, Mem^R SXT^R CC^R Ery^R Pen^R
[19] = S. pneumoniae MMX 8133, Mem^R SXT^R CC^R Ery^R Pen^R

SMILES	MIC (S. pyogenes; S. pyogenes MMX 3068, Ery^R)	MIC (S. pyogenes; [5])	MIC (S. pyogenes; S. pyogenes MMX 3919, ERY^R)	MIC (S. pyogenes; [6])	MIC (S. pyogenes; [7])	MIC (S. agalactiae; [8])	MIC (S. agalactiae; [9])	MIC (S. agalactiae; [10])	MIC (S. agalactiae; [11])	MIC (S. agalactiae; [12])	MIC (S. pneumoniae [3]; [13])	MIC (S. pneumoniae [3]; [14])	MIC (S. pneumoniae [3]; [15])	MIC (S. pneumoniae [3]; [16])	MIC (S. pneumoniae [3]; [17])	MIC (S. pneumoniae [3]; [18])	MIC (S. pneumoniae [3]; [19])	further results
CCC[C@@H]1C[C@@H](C(=O)N[C@@H]([C@H]2O[C@H](SC)[C@H](O)[C@@H](O)[C@H]2O)[C@H](C)Cl)N(C)C1 [clindamycin]	0.06 µg/mL (≈ 0.141 µM)	1 µg/mL (≈ 2.35 µM)	0.12 µg/mL (≈ 0.282 µM)	> 8 µg/mL	> 8 µg/mL	> 8 µg/mL	> 8 µg/mL	> 8 µg/mL	> 8 µg/mL	> 8 µg/mL	0.06 µg/mL (≈ 0.141 µM)	> 8 µg/mL	> 8 µg/mL	> 8 µg/mL	> 8 µg/mL	> 8 µg/mL	> 8 µg/mL	MIC, CLSI QC range (Clostridium difficile): (2-8) pg/mL; MIC ([1]; ATCC29213|MRSA|MSSA, S. aureus MMX 101 (ATCC 29213), QC, MSSA): 0.12 µg/mL (≈ 0.282 µM); MIC ([1]; MRSA, S. aureus MMX 5373, MRSA Lev^R Cip^R CC^R Ery^R Ox^R): > 32 µg/mL; MIC ([1]; MRSA, S. aureus MMX 6311, MRSA Lev^R Cip^R CC^R Ery^R Ox^R): > 32 µg/mL; MIC ([1]; MRSA, S. aureus MMX 9203, MRSA Lev^R Cip^R Ery^R Ox^R): 0.12 µg/mL (≈ 0.282 µM); MIC ([1]; MRSA, S. aureus MMX 9204, MRSA Lev^R Cip^R Ery^R Ox^R): 0.12 µg/mL (≈ 0.282 µM); MIC ([1]; MRSA, S. aureus MMX 9205, MRSA Lev^R Cip^R CC^R Ery^R Ox^R): > 32 µg/mL; MIC, CLSI QC range (Bacteroides fragilis): (0.5-2)^1 ^ pg/mL; MIC [2]: ≥ 4 µg/mL; MIC (E. faecalis; E. faecalis MMX 8960): > 32 µg/mL; MIC (E. faecalis; E. faecalis MMX 8961): > 32 µg/mL; MIC (E. faecalis; E. faecalis MMX 8962): > 32 µg/mL
CC1(C)S[C@@H]2[C@H](NC(=O)Cc3ccccc3)C(=O)N2[C@H]1C(=O)O [Penicillin]	≤ 0.008 µg/mL	≤ 0.008 µg/mL	≤ 0.008 µg/mL	≤ 0.008 µg/mL	≤ 0.008 µg/mL	0.03 µg/mL (≈ 0.0897 µM)	0.06 µg/mL (≈ 0.179 µM)	0.06 µg/mL (≈ 0.179 µM)	2 µg/mL (≈ 5.98 µM)	0.06 µg/mL (≈ 0.179 µM)	0.25 µg/mL (≈ 0.748 µM)	2 µg/mL (≈ 5.98 µM)	4 µg/mL (≈ 12 µM)	0.12 µg/mL (≈ 0.359 µM)	4 µg/mL (≈ 12 µM)	4 µg/mL (≈ 12 µM)	4 µg/mL (≈ 12 µM)	MIC, CLSI QC range (S. pneumoniae [4]): (0.25-1) μg/mL
